“And” between values parts separate entries of the source, which are not always exact repeats. Equal values may be shown once. “Also recorded” adds a separate entry of the source.
Assays:
MTAP−/− HCT116 cells = assay: Cellular antiproliferation assay (CCK8), MTAP-deleted HCT116; assay type: cell-based; conditions: Homo sapiens, HCT-116, 72 h, mean ± SD
Method: Cell viability assays were performed using Cell Counting Kit-8 (CCK8). Briefly, the MTAP-deleted HCT116 cells (Horizon) were plated at 1000 cells per well in 96-well plates in RPMI-1640 medium with 10% FBS and 1% PS, and then incubated at 37 °C under a 5% CO2 atmosphere overnight. The stock solutions were serially diluted 3-fold in DMSO to obtain an eight-point dilution curve with final compound concentrations and test compounds added. After 72 h, 10 μL CCK-8 dye was added in each well and the cells were incubated for 2–4 h. […] was measured at 450 nm. Dose response curves were analyzed in GraphPad Prism 8.

Parental HCT116 cells = assay: Cellular antiproliferation assay (CCK8), parental HCT116; assay type: cell-based; conditions: Homo sapiens, HCT-116, 72 h, mean ± SD
[1] = system: HCT116 MTAP-deleted xenograft tumor; assay type: in vivo; conditions: for tumor growth inhibition (TGI): 30 mg/kg orally q.d. for 19 days; for tumor growth inhibition (TGI) / T/C (%) relative tumor proliferation rate: BALB/c nude mice, HCT116 MTAP−/− xenograft; for T/C (%) relative tumor proliferation rate / Tumor volume / Histopathological analysis (H&E staining) of tumor tissues: 30 mg/kg orally q.d.; for Tumor volume: mean ± SD, at end of study; for Histopathological analysis (H&E staining) of tumor tissues: xenograft tumor tissue
Method: The antitumor efficacy of compound 17 was evaluated in female BALB/c nude mice using a standardized tumor xenotransplantation model. Animals were maintained under specific-pathogen-free (SPF) conditions, and all experimental procedures adhered to institutional animal care protocols approved by the Institute of Radiation Medicine, the Chinese Academy of Medical Sciences, and Peking Union Medical College, complying with national guidelines for humane treatment. For tumor induction, 2 × 10^6 HCT-116 MTAP^−/− cells suspended in PBS were subcutaneously implanted into the right hind flank. Following a 7-day engraftment period, mice were stratified into three cohorts (n = 5/group) via block randomization performed by an independent researcher to minimize selection bias. Compound 17 was administered orally at 30 mg/kg once daily, using 5% DMSO + 10% Solutol HS-15 + 85% saline as the vehicle solution. The positive control AG-270 was dosed at the same regimen (30 mg/kg, orally, once daily) with identical vehicle composition. Tumor progression was monitored every other day through digital caliper measurements, with volumes calculated using the ellipsoid approximation formula: V = 0.5 × length × width^2.

MAT2A = MAT2A (Homo sapiens, UniProt P31153); assay: MAT2A enzymatic assay (colorimetric Phosphate Assay Kit-PiColorLock); assay type: biochemical; conditions: for Maximum Inhibition (%): MAT2A enzymatic assay; for IC50: mean ± SD, at least three independent experiments, NA: no activity at 10 μM; for MAT2A inhibitory activity (in words): up to 10 μM
Chain of MAT2A (P31153 whole entry): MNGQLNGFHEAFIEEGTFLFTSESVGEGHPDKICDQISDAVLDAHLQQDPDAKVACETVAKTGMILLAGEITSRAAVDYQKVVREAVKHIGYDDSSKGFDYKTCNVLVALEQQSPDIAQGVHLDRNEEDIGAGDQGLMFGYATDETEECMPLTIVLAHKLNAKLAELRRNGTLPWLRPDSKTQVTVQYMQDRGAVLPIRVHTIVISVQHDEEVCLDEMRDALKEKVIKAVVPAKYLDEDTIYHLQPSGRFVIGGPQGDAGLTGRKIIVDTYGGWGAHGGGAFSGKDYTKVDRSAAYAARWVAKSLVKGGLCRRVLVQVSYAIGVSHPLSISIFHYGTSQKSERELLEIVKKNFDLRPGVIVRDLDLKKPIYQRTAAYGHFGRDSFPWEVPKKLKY
Method: The inhibition of MAT2A by each compound was determined using the colorimetric Phosphate Assay Kit-PiColorLock (#ab270004) as described previously. […] Assay measurements were performed in 1X buffer containing 50 mM Tris, 50 mM KCl, 10 mM MgCl2, and 0.05% Brij-35 (pH 8.0) in a final assay volume of 5 μL. A total of 2.5 μL of MAT2A protein with a final concentration of 20 μg/mL was added to each well of a 384 well assay plate containing 100 nL of each concentration of test compound dissolved in DMSO and incubated for 30 min at room temperature. ATP (100 μM final concentration) and L-Met (100 μM final concentration) were subsequently added and incubated for 30 min at room temperature. Then 20 μL of the phosphate assay kit substrate was added to each well, incubated at room temperature for 30 min, and then the absorbance was measured at 620 nm on a plate reader.

[2] = Cytotoxicity of new compounds in HEK293A; assay type: cell-based; conditions: human, HEK293A cells

| IC50 (MAT2A) | SMILES | Maximum Inhibition (%) (MAT2A) | IC50 [2] [µM] | other results |
| --- | --- | --- | --- | --- |
|  | CN(C)c1nc(=O)n(-c2ccccc2)c2cc(Cl)ccc12 [6 (AZ-28), AZ-28, reference compound] |  |  | IC50 (MTAP−/− HCT116 cells): 0.35 ± 0.13 µM; IC50 (Parental HCT116 cells): 1.9 ± 0.2 µM |
|  | COc1ccc(-c2c(Nc3ccccn3)[nH]c3c(C4=CCCCC4)c(-c4ccccc4)nn3c2=O)cc1 [AG-270, reference compound] |  |  | tumor growth inhibition (TGI) [1]: 80.4%; T/C (%) relative tumor proliferation rate [1]: 22.9%; Tumor volume [1]: 351.9 ± 96.1 mm3; Histopathological analysis (H&E staining) of tumor tissues [1]: reduced cellular proliferation |
| 6.8 ± 0.2 µM | CCOC(=O)c1[nH]c2c(c1-c1ccccc1)C(=O)CC(c1ccccc1)C2 (centres unmarked) [Compound 8, Ethyl 4-Oxo-3,6-diphenyl-4,5,6,7-tetrahydro-1H-indole-2-carboxylate] | 47 | > 100 |  |
|  | CCOC(=O)c1[nH]c2c(c1Cc1ccccc1)C(=O)CC(c1ccccc1)C2 (centres unmarked) [Compound 9, Ethyl 3-Benzyl-4-oxo-6-phenyl-4,5,6,7-tetrahydro-1H-indole-2-carboxylate] |  | > 100 | MAT2A inhibitory activity (in words) (MAT2A): no detectable activity; also recorded: inactive |
|  | CCOC(=O)c1[nH]c2c(c1Cc1ccccc1)C(=O)CC(C)(C)C2 [Compound 10] |  | > 100 | MAT2A inhibitory activity (in words) (MAT2A): no detectable activity; also recorded: inactive |
| 15.6 ± 3.1 µM | CCOC(=O)c1c(C)c(C(=O)Nc2ccc(OC)cc2)c(C)n1C [Compound 11] |  | > 100 |  |
|  | Cn1cc(C(=O)Nc2ccc3c(c2)OCO3)c2ccccc21 [Compound 14] |  | > 100 | MAT2A inhibitory activity (in words) (MAT2A): completely lost its binding affinity; also recorded: abolished activity entirely |
| 0.91 ± 0.09 µM | COc1ccc(NC(=O)c2ccc3scnc3c2)cc1 [Compound 15, N-(4-Methoxyphenyl)benzo[D]thiazole-5-carboxamide] | 80 | > 100 | IC50 (MTAP−/− HCT116 cells): 2.2 ± 0.1 µM; IC50 (Parental HCT116 cells): > 10 µM |
|  | COc1ccc(NC(=O)c2cccc3ncsc23)cc1 [Compound 16, N-(4-Methoxyphenyl)benzo[D]thiazole-7-carboxamide] |  | > 100 | MAT2A inhibitory activity (in words) (MAT2A): complete loss of binding affinity; also recorded: abolished activity entirely |
| 0.78 ± 0.15 µM | COc1ccc(NC(=O)c2cccc(N3CCCCC3)c2)cc1 [Compound 18, N-(4-Methoxyphenyl)-3-(piperidin-1-Yl)benzamide] | 72 | > 100 |  |
| 4.6 ± 0.3 µM | CCOC(=O)c1[nH]c2c(c1Cc1ccccc1OC)C(=O)CC(c1ccc(OC)cc1)C2 (centres unmarked) [Compound A10] | 65 | 55.6 ± 7.8 |  |

| SMILES | IC50 (MAT2A) | Maximum Inhibition (%) (MAT2A) | IC50 [2] [µM] | other results |
| --- | --- | --- | --- | --- |
| CCn1cc(C(=O)Nc2ccc(OC)cc2)c2cccnc21 [Compound 12] | 2.9 ± 0.2 µM | 86 | > 100 |  |
| COc1ccc(NC(=O)c2cn(C)c3ccccc23)cc1 [Compound 13, N-(4-Methoxyphenyl)-1-methyl-1H-indole-3-carboxamide] | 2.1 ± 0.6 µM | 82 | > 100 |  |
| COc1ccc(NC(=O)c2cccc(-n3cccc3)c2)cc1 [Compound 17, N-(4-Methoxyphenyl)-3-(1H-pyrrol-1-Yl)benzamide] | 0.43 ± 0.06 µM | 84 | > 100 | IC50 (MTAP−/− HCT116 cells): 1.4 ± 0.3 µM; IC50 (Parental HCT116 cells): > 10 µM; tumor growth inhibition (TGI) [1]: 58.4%; T/C (%) relative tumor proliferation rate [1]: 44.4%; Tumor volume [1]: 659.9 ± 100.2 mm3; Histopathological analysis (H&E staining) of tumor tissues [1]: reduced cellular proliferation |
| COc1ccc(NC(=O)c2cn(C)c3ncccc23)cc1F [Compound A11] | 4.6 µM and 2.5 µM | 76 | > 100 | IC50 (MTAP−/− HCT116 cells): 6 ± 0.4 µM; IC50 (Parental HCT116 cells): > 10 µM |
